Key:
[1] = tested on: peripheral blood mononuclear cells (PBMCs); design: method as in PMID 21067217; conditions: cited from earlier work
MDA-MB-231 cells [2] = test: Cell cycle analysis with PI (flow cytometry); type: cell-based, human
Experimental: (§1) Cells were seeded onto 6-well plates and treated with A-1 (0.1 µM and 1 µM) for 24, 48, and 72 h. Cells incubated with 0.01% DMSO (ATCC; Manassas, VA, USA) were used as a control. Then, MDA-MB-231 and MCF-10A cells were collected by trypsinization; MDA-MB-436 cells were collected by scraping. Treated cells were fixed with ice-cold 70% ethanol while vortexing and incubated for 1 h in 4 °C. Then, cells were washed with cold 1X DPBS, treated with 1 mg/mL of ribonuclease A, and incubated for 30 min at 37 °C. The cells were then stained with 10 µg/mL of propidium iodide (PI), incubated for 30 min at 37 °C, and analyzed by flow cytometry using BD FACS Aria Sorter (BD Biosciences, Franklin Lakes, NJ, USA). Data were analyzed with Modfit LT 5.0 software (Verity Software House; Topsham, ME, USA). All experiments were performed in triplicates.

MCF-10A cells = test: Cell cycle analysis with PI (flow cytometry); type: cell-based, human; conditions: 0.1 and 1 µM, 24, 48, 72 h
Experimental: as §1

MDA-MB-231 cells [3] = test: Annexin V-FITC/PI apoptosis assay (flow cytometry); type: cell-based, human; conditions: mean ± SD
Experimental: (§2) Cells (10^6 cells/well) were seeded onto 6-well plates. After 24 h, the cells were incubated with A-1 (0.1 and 1 µM) for 24, 48, and 72 h. The control groups were incubated with 0.01% DMSO (ATCC; Manassas, VA, USA) for every hour. Then, cells were collected and washed twice with cold 1X PBS and stained with both annexin V-FITC and PI for 5 min at room temperature. The cells were analyzed by flow cytometry using BD FACS Aria (BD Biosciences, Franklin Lakes, NJ, USA). The positive controls (annexin negative/PI negative; annexin negative/PI positive; and annexin positive/PI negative) were used to set up compensation and set quadrants. The early apoptotic cells were measured in the quadrant of annexin V positive/PI negative and late apoptotic/necrotic cells were measured in the quadrant of annexin positive/PI positive. Data were analyzed with FlowJo™ v10.8 Software (BD Life Sciences; Ashland, OR, USA). All experiments were performed in triplicates.

MDA-MB-436 cells [4] = test: Annexin V-FITC/PI apoptosis assay (flow cytometry); type: cell-based, human; conditions: mean ± SD
Experimental: as §2

[5] = tested on: UDP-glucuronosyltransferases; conditions: in vitro metabolism; cited from earlier work
MDA-MB-231 cells [6] = test: RealTime-Glo MT cell viability (cytotoxicity) assay; type: cell-based, human; conditions: for IC50: Homo sapiens
Experimental: (§3) The cytotoxicity of RES, A-1, and A-3 was measured using the RealTime-Glo^TM MT Cell Viability Assay (Promega, Madison, WI, USA). The cells (10,000 cells/well) were seeded into 96-well plates. […] Cells with 0.1% DMSO (ATCC; Manassas, VA, USA) were included as a control. Luminescence was measured every 12 h for 72 total hours in a Cytation^TM 5 (BioTek, Winooski, VT, USA) plate reader. All experiments were performed in triplicates.

MDA-MB-436 cells [7] = test: as above; type: cell-based, human; conditions: for IC50: Homo sapiens
Experimental: as §3

Compound: CC(C)/C=C/c1c(O)cc(/C=C/c2ccc(O)c(O)c2)cc1O [A-1, arachidin-1]
- cytotoxic effects on PBMCs [1]: no cytotoxic effects
- percentage of cells in G2-M phase (MDA-MB-231 cells [2]; 0.1 µM, 72 h): 27.73 ± 4.33%
- percentage of cells in G2-M phase (MDA-MB-231 cells [2]; 1 µM, 24 h): ~31.73 ± 4.00%
- percentage of cells in G2-M phase (MDA-MB-231 cells [2]; 1 µM, 48 h): ~25.13 ± 0.89%
- percentage of cells in G2-M phase (MDA-MB-231 cells [2]; 1 µM, 72 h): 31.28 ± 3.45%
- cell cycle effect (MDA-MB-231 cells [2]; 0.1 and 1 µM): cell arrest in the G2-M phase
- change in cell cycle phase distribution (MCF-10A cells): no significant changes in the percentage of cells at different phases
- percentage of cells in early apoptosis (MDA-MB-231 cells [3]; 0.1 µM, 24 h): 21.29 ± 1.94%
- percentage of cells in early apoptosis (MDA-MB-231 cells [3]; 0.1 µM, 48 h): 63.47 ± 0.90%
- percentage of cells in early apoptosis (MDA-MB-231 cells [3]; 0.1 µM, 72 h): 53.1 ± 2.50%
- percentage of cells in early apoptosis (MDA-MB-231 cells [3]; 1 µM, 24 h): 24.76 ± 1.65%
- percentage of cells in early apoptosis (MDA-MB-231 cells [3]; 1 µM, 48 h): 68.67 ± 0.76%
- percentage of cells in early apoptosis (MDA-MB-231 cells [3]; 1 µM, 72 h): 51.77 ± 2.37%
- percentage of early apoptotic cells (MDA-MB-436 cells [4]; 0.1 µM, 24 h): 35.76 ± 4.10%
- percentage of early apoptotic cells (MDA-MB-436 cells [4]; 0.1 µM, 48 h): 44.90 ± 0.89%
- percentage of early apoptotic cells (MDA-MB-436 cells [4]; 0.1 µM, 72 h): 45.73 ± 0.96%
- percentage of early apoptotic cells (MDA-MB-436 cells [4]; 1 µM, 24 h): 35.27 ± 3.78%
- percentage of early apoptotic cells (MDA-MB-436 cells [4]; 1 µM, 48 h): 46.11 ± 3.40%
- percentage of early apoptotic cells (MDA-MB-436 cells [4]; 1 µM, 72 h): 38.77 ± 2.59%
- glucuronidated products compared to non-prenylated analogs piceatannol and RES [5]: lower glucuronidated products
- IC50 (MDA-MB-231 cells [6]; MDA-MB-231, 24 h, MDA-MB-231, 24 h, in Figure 2 panels): 1840 nM
- IC50 (MDA-MB-231 cells [6]; MDA-MB-231, 24 h, MDA-MB-231, 24 h of treatment): 2680 nM
- IC50 (MDA-MB-231 cells [6]; MDA-MB-231, 48 h, MDA-MB-231, 48 h, in Figure 2 panels): 1420 nM
- IC50 (MDA-MB-231 cells [6]; MDA-MB-231, 48 h, MDA-MB-231, 48 h of treatment): 7820 nM
- IC50 (MDA-MB-231 cells [6]; MDA-MB-231, 72 h, MDA-MB-231, 72 h, in Figure 2 panels): 2510 nM
- IC50 (MDA-MB-231 cells [6]; MDA-MB-231, 72 h, MDA-MB-231, 72 h of treatment): 2510 nM
- IC50 (MDA-MB-231 cells [6]; MDA-MB-231, MDA-MB-231, all treatment time points): ~2000 nM
- antiproliferative effect (cell viability vs control) (MDA-MB-231 cells [6]; MDA-MB-231, 1 µM, 24, 48, 72 h): cell proliferation reductions
- growth inhibition at low concentrations (MDA-MB-231 cells [6]; MDA-MB-231, 0.01-10 µM, 72 h): higher inhibitory growth effects at lower micromolar concentrations when compared to RES
- fold lower IC50 of A-1 than RES (MDA-MB-231 cells [6]; MDA-MB-231, 24 h): six-fold
- IC50 (MDA-MB-436 cells [7]; MDA-MB-436, 24 h, MDA-MB-436, 24 h): 12000 nM
- IC50 (MDA-MB-436 cells [7]; MDA-MB-436, 24 h, MDA-MB-436, 24 h, in Figure 2 panels): 1620 nM
- IC50 (MDA-MB-436 cells [7]; MDA-MB-436, 48 h, MDA-MB-436, 48 h): 6200 nM
- IC50 (MDA-MB-436 cells [7]; MDA-MB-436, 48 h, MDA-MB-436, 48 h, in Figure 2 panels): 2740 nM
- IC50 (MDA-MB-436 cells [7]; MDA-MB-436, 72 h, MDA-MB-436, 72 h): 2090 nM
- IC50 (MDA-MB-436 cells [7]; MDA-MB-436, 72 h, MDA-MB-436, 72 h, in Figure 2 panels): 2090 nM
- IC50 (MDA-MB-436 cells [7]; MDA-MB-436, MDA-MB-436, all treatment time points): ~2000 nM
- antiproliferative effect (cell viability vs control) (MDA-MB-436 cells [7]; MDA-MB-436, 1 µM, 24, 48, 72 h): cell proliferation reductions
- growth inhibition at low concentrations (MDA-MB-436 cells [7]; MDA-MB-436, 0.01-10 µM, 72 h): higher inhibitory growth effects at lower micromolar concentrations when compared to RES
- fold lower IC50 of A-1 than A-3 (MDA-MB-436 cells [7]; MDA-MB-436, 24 h): nine-fold
- fold lower IC50 of A-1 than RES (MDA-MB-436 cells [7]; MDA-MB-436, 24 h): eight-fold

Reference: article PMC8835363, “Arachidin-1, a Prenylated Stilbenoid from Peanut, Induces Apoptosis in Triple-Negative Breast Cancer Cells” (International Journal of Molecular Sciences, 2022)
